Literature values in US20040229960A1, “Compositions and methods of administering tubulin binding agents for the treatment of ocular diseases” (priority 2001, published 2004).

Conditions: cited from earlier work

For `COc1ccc(/C=C\c2cc(OC)c(OC)c(OC)c2)cc1O` [CA4, combretastatin A4], the Solubility in water is listed as “essentially insoluble in water”.
